30 molecules from patent US20260078130A1, “NAMPT MODULATORS, PREPARATIONS, AND USES THEREOF” (SIRONAX LTD., priority 2022, published 2026) can be followed below.

The test deals with T1, human enzyme NAMPT (full length) (Homo sapiens, UniProt P43490).
T1 construct: human enzyme NAMPT (full length)
Description: NMN fluorescence biochemical assay (stimulation of NMN synthesis by NAMPT). The note with it: for EC50: concentration giving half-maximal activation, read-out: Enzymatic EC50; for Enzymatic Emax: fold change of maximal activation compared to DMSO. An outline of the steps:
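Full-length human NAMPT (100 nM) was preincubated 15 min at 37 °C with compound in 50 mM Tris-HCl pH 7.5, 10 mM MgCl2, 2 mM DTT, then reacted 1 h at 37 °C with 50 μM NAM, 100 μM PRPP, 4 mM ATP (stated solution concentrations). NMN was derivatised with acetophenone/KOH then formic acid and read at Ex/Em 382/445 nm; EC50 and Emax (fold over DMSO) reported.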

The mark [1] stands for this setting: NMN synthesis by purified human NAMPT (100 nM).
Setting [2] is: NMN fluorescence assay, purified human NAMPT 100 nM.

As usually defined, the EC50 is the concentration at which the effect is half-maximal.

Read-outs that look alike come from different tables or passages of the source. Where only a bound is given, the exact number is not on record here.

T1 sequence (P43490 whole entry): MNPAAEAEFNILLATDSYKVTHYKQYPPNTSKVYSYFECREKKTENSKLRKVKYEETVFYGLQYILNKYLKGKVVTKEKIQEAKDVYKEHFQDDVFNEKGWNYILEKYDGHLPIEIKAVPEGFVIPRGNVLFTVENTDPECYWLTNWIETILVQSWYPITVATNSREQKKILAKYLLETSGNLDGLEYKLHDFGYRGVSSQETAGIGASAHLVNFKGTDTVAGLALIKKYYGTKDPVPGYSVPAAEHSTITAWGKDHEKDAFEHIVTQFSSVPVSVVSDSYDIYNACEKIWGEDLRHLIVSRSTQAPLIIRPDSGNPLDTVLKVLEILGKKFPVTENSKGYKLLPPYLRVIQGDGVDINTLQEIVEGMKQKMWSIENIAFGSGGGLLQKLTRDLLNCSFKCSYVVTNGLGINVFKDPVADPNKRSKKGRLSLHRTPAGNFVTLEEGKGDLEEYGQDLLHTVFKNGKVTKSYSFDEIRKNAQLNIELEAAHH

As for `NC(=O)c1cnc(CN2C(=O)c3ccccc3C2Cc2ncccc2Br)s1` (stereo not shown) [Compound 280, 2-((1-((3-bromopyridin-2-yl)methyl)-3-oxoisoindolin-2-yl)methyl)thiazole-5-carboxamide], the “Enzymatic Emax” value is on record as “B (3≥B>2)”. For the same molecule, the EC50 under setting [1] was ≥ 5 µM.

With `COc1nc2cc(CN3C(=O)c4ccccc4C3Cc3ncccc3Br)ccc2[nH]1` (stereo not shown) [Compound 254, 3-((3-bromopyridin-2-yl)methyl)-2-((2-methoxy-1H-benzo[d]imidazol-5-yl)methyl) isoindolin-1-one], the “Enzymatic Emax” value was “B (3≥B>2)”. Under setting [1], the EC50 lay within 0.5 to 5 µM.

As for `Cn1ncc(Cl)c1CC1c2ccccc2C(=O)N1C[C@@H]1C[C@H]1c1c[nH]nn1` (relative stereo) [Compound 548, trans 2-((2-(1H-1,2,3-triazol-4-yl)cyclopropyl)methyl)-3-((4-chloro-1-methyl-1H-pyrazol-5-yl)methyl)isoindolin-1-one], the EC50 under setting [2] was 0.5 to 5 µM.

`Cn1ncc(Cl)c1CC1c2ccccc2C(=O)N1Cc1ccc2ocnc2c1` (stereo not shown) [Compound 561, 2-(benzo[d]oxazol-5-ylmethyl)-3-((4-chloro-1-methyl-1H-pyrazol-5-yl)methyl)isoindolin-1-one]: the “Enzymatic Emax” value is reported as “C (2≥C)”. The EC50 under setting [2] was ≥ 5 µM.

Take `CNC(=O)c1ccc2c(c1)C(C)N(Cc1ccc3[nH]c(=O)oc3c1)C2=O` (stereo not shown) [Compound 92, N,3-dimethyl-1-oxo-2-((2-oxo-2,3-dihydrobenzo[d]oxazol-6-yl)methyl)isoindoline-5-carboxamide]: the “Enzymatic Emax” value was “B (3≥B>2)”. Further, the EC50 under setting [1] was ≥ 5 µM.

Take `Cn1ncc(Cl)c1CC1c2ccccc2C(=O)N1CC#Cc1c[nH]cn1` (stereo not shown) [Compound 452, 2-(3-(1H-imidazol-4-yl)prop-2-yn-1-yl)-3-((4-chloro-1-methyl-1H-pyrazol-5-yl)methyl)insoindolin-1-one]: the “Enzymatic Emax” value is “C (2≥C)”. Besides, the EC50 under setting [2] fell in the range of 0.5 to 5 µM.

As for `CC1c2ccccc2C(=O)N1Cc1cc(F)c2[nH]nnc2c1` (stereo not shown) [Compound 290, 2-((7-fluoro-1H-benzo[d][1,2,3]triazol-5-yl)methyl)-3-methylisoindolin-1-one], the “Enzymatic Emax” value was “C (2≥C)”. The EC50 under setting [1] was ≥ 5 µM.

On to `CC1c2cc(Cl)ccc2C(=O)N1Cc1ccc2[nH]c(=O)oc2c1` (stereo not shown) [Compound 265, 6-((5-chloro-3-methyl-1-oxoisoindolin-2-yl)methyl)benzo[d]oxazol-2(3H)-one], for which the “Enzymatic Emax” value is “A (A>3)”. For the same molecule, the EC50 under setting [1] is ≥ 5 µM.

As to `COc1ccc2c(c1)C(=O)N(Cc1ccc(O)cc1)C2=O` [Compound 30, 2-(4-hydroxybenzyl)-5-methoxyisoindoline-1,3-dione], the “Enzymatic Emax” value is listed as “A (A>3)”. Also, the EC50 under setting [1] is 0.5 to 5 µM.

On to `Cn1ncc(Cl)c1CC1c2ccccc2C(=O)N1Cc1ccc2[nH]c(=S)oc2c1` (stereo not shown) [Compound 626, 3-((4-chloro-1-methyl-1H-pyrazol-5-yl)methyl)-2-((2-thioxo-2,3-dihydrobenzo[d]oxazol-6-yl)methyl)isoindolin-1-one], for which the EC50 under setting [2] was ≥ 5 µM.

With `Cn1nc(Cl)c(Cl)c1CC1c2ccccc2C(=O)N1C[C@H]1C[C@@]2(CNC(=O)O2)C1` (stereo partly shown) [Compound 500, (2r,4r)-2-((1-((3,4-dichloro-1-methyl-1H-pyrazol-5-yl)methyl)-3-oxoisoindolin-2-yl)methyl)-5-oxa-7-azaspiro[3.4]octan-6-one], the “Enzymatic Emax” value is on record as “C (2≥C)”. For the same molecule, under setting [2], the EC50 is 0.5 to 5 µM.

Regarding `Cc1[nH]nnc1/C=C/CN1C(=O)c2ccccc2C1Cc1ncccc1Br` (stereo not shown) [Compound 386, (E)-3-((3-bromopyridin-2-yl)methyl)-2-(3-(5-methyl-1H-1,2,3-triazol-4-yl)allyl)isoindolin-1-one], the “Enzymatic Emax” value was “B (3≥B>2)”. The EC50 under setting [2] was in the range of 0.5 to 5 µM.

On to `O=C1c2ccccc2C(Cc2ncccc2Br)N1Cc1ccc2[nH]cnc2c1` (stereo not shown) [Compound 268, 2-((1H-benzo[d]imidazol-5-yl)methyl)-3-((3-bromopyridin-2-yl)methyl)isoindolin-1-one], for which the “Enzymatic Emax” value is given as “A (A>3)”. Besides, under setting [1], the EC50 fell in the range of 0.5 to 5 µM.

On to `O=C1c2ccccc2C(Cc2ccc(Cl)cn2)N1Cc1ccc2[nH]c(=O)oc2c1` (stereo not shown) [Compound 196, 6-((1-((5-chloropyridin-2-yl)methyl)-3-oxoisoindolin-2-yl)methyl)benzo[d]oxazol-2(3H)-one], for which the “Enzymatic Emax” value is reported as “B (3≥B>2)”. For the same molecule, the EC50 under setting [1] was in the range of 0.5 to 5 µM.

Consider `Cc1conc1CC1c2ccccc2C(=O)N1Cc1ccc2[nH]c(=O)oc2c1` (stereo not shown) [Compound 248, 6-((1-((4-methylisoxazol-3-yl)methyl)-3-oxoisoindolin-2-yl)methyl)benzo[d]oxazol-2(3H)-one], for which the “Enzymatic Emax” value was “A (A>3)”. Under setting [1], the EC50 lay within 0.5 to 5 µM.

Take `Cn1ncc(Cl)c1CC1c2cc(F)cc(F)c2C(=O)N1CC1CC2(CNC(=O)O2)C1` (stereo not shown) [Compound 496, 2-((1-((4-chloro-1-methyl-1H-pyrazol-5-yl)methyl)-4,6-difluoro-3-oxoisoindolin-2-yl)methyl)-5-oxa-7-azaspiro[3.4]octan-6-one]: the “Enzymatic Emax” value is “B (3≥B>2)”. For the same molecule, the EC50 under setting [2] was < 0.5 µM.

Consider `O=C1c2ccccc2C(Cc2ccc(F)cn2)N1Cc1ccc2[nH]c(=O)oc2c1` (stereo not shown) [Compound 194, 6-((1-((5-fluoropyridin-2-yl)methyl)-3-oxoisoindolin-2-yl)methyl)benzo[d]oxazol-2(3H)-one], for which the “Enzymatic Emax” value is “B (3≥B>2)”. The EC50 under setting [1] was in the range of 0.5 to 5 µM.

As to `N#Cc1cccc(F)c1C[C@@H]1c2ccccc2C(=O)N1Cc1ccc2[nH]c(=O)oc2c1` [Compound 171, (R)-3-fluoro-2-((3-oxo-2-((2-oxo-2,3-dihydrobenzo[d]oxazol-6-yl)methyl)isoindolin-1-yl)methyl)benzonitrile], the “Enzymatic Emax” value is reported as “C (2≥C)”. The EC50 under setting [1] was ≥ 5 µM.

Regarding `Cn1ncc(Cl)c1CC1c2ccccc2C(=O)N1[C@H]1C[C@H](c2c[nH]c(=O)o2)C1` (stereo partly shown) [Compound 455, 5-((1r,3r)-3-(1-((4-chloro-1-methyl-1H-pyrazol-5-yl)methyl)-3-oxoisoindolin-2-yl)cyclobutyl)oxazol-2(3H)-one], the “Enzymatic Emax” value is reported as “C (2≥C)”. Under setting [2], the EC50 was ≥ 5 µM.

With `Cn1ncc(Cl)c1CC1c2ccccc2C(=O)N1C/C=C/c1nn[nH]c1Cl` (stereo not shown) [Compound 525, (E)-3-((4-chloro-1-methyl-1H-pyrazol-5-yl)methyl)-2-(3-(5-chloro-1H-1,2,3-triazol-4-yl)allyl)isoindolin-1-one], the “Enzymatic Emax” value is “C (2≥C)”. Also, under setting [2], the EC50 is ≥ 5 µM.

Turning to `O=C1c2ccccc2C(Cc2cc(F)ccn2)N1Cc1ccc2[nH]c(=O)oc2c1` (stereo not shown) [Compound 233, 6-((1-((4-fluoropyridin-2-yl)methyl)-3-oxoisoindolin-2-yl)methyl)benzo[d]oxazol-2(3H)-one], the “Enzymatic Emax” value is reported as “B (3≥B>2)”. Besides, the EC50 under setting [1] is 0.5 to 5 µM.

`O=c1[nH]n(Cc2ccc(O)cc2)c2ccccc12` [Compound 13, 1-(4-hydroxybenzyl)-1,2-dihydro-3H-indazol-3-one]: the “Enzymatic Emax” value was “B (3≥B>2)”. Further, the EC50 under setting [1] is ≥ 5 µM.

On to `Cc1ccc2c(c1)C(=O)N(Cc1ccc(O)cc1)C2` [Compound 32, 2-(4-hydroxybenzyl)-6-methylisoindolin-1-one], for which the “Enzymatic Emax” value is reported as “A (A>3)”. Under setting [1], the EC50 was ≥ 5 µM.

Turning to `O=C1CC2(CN1)CC(CN1C(=O)c3ccccc3C1Cc1ncccc1Br)C2` (stereo not shown) [Compound 424, 3-((3-bromopyridin-2-yl)methyl)-2-((7-oxo-6-azaspiro[3.4]octan-2-yl)methyl) isoindolin-1-one], the “Enzymatic Emax” value was “C (2≥C)”. Moreover, under setting [2], the EC50 was ≥ 5 µM.

As to `COC1CN(Cc2ccc3c(c2)[C@H](C)N(Cc2ccc4[nH]c(=O)oc4c2)C3=O)C1` (single isomer, unassigned) [Compound 185], the “Enzymatic Emax” value was “B (3≥B>2)”. Also, the EC50 under setting [1] is ≥ 5 µM.

For `O=C1c2ccccc2C(CC2CCOCC2)N1Cc1ccc2[nH]c(=O)oc2c1` (stereo not shown) [Compound 226, 6-((1-oxo-3-((tetrahydro-2H-pyran-4-yl)methyl)isoindolin-2-yl)methyl)benzo[d]oxazol-2(3H)-one], the “Enzymatic Emax” value was “B (3≥B>2)”. Under setting [1], the EC50 is ≥ 5 µM.

In the case of `Cn1c(CC2c3ccccc3C(=O)N2CC2CC3(CNC(=O)O3)C2)cccc1=O` (stereo not shown) [Compound 494, 2-((1-((1-methyl-6-oxo-1,6-dihydropyridin-2-yl)methyl)-3-oxoisoindolin-2-yl)methyl)-5-oxa-7-azaspiro[3.4]octan-6-one], the “Enzymatic Emax” value was “C (2≥C)”. For the same molecule, the EC50 under setting [2] is ≥ 5 µM.

Take `Cc1cc2[nH]c(=O)oc2cc1CN1C(=O)c2ccccc2C1Cc1ncccc1Br` (stereo not shown) [Compound 333, 6-((1-((3-bromopyridin-2-yl)methyl)-3-oxoisoindolin-2-yl)methyl)-5-methylbenzo[d]oxazol-2(3H)-one]: the “Enzymatic Emax” value is listed as “B (3≥B>2)”. Besides, the EC50 under setting [2] lay in the range of 0.5 to 5 µM.

On to `Cn1ncc(Cl)c1CC1c2ccccc2C(=O)N1CCc1ccc(=O)[nH]c1` (stereo not shown) [Compound 636, 3-((4-chloro-1-methyl-1H-pyrazol-5-yl)methyl)-2-(2-(6-oxo-1,6-dihydropyridin-3-yl)ethyl)isoindolin-1-one], for which the “Enzymatic Emax” value is “C (2≥C)”. In addition, under setting [2], the EC50 was ≥ 5 µM.

As for `N#Cc1cccc(CC2c3ccccc3C(=O)N2Cc2ccc3[nH]c(=O)oc3c2)c1F` (stereo not shown) [Compound 204, 2-fluoro-3-((3-oxo-2-((2-oxo-2,3-dihydrobenzo[d]oxazol-6-yl)methyl)isoindolin-1-yl)methyl)benzonitrile], the “Enzymatic Emax” value is “B (3≥B>2)”. The EC50 under setting [1] lay within 0.5 to 5 µM.
